≈ marks a conversion by molar mass, not a printed value.

Holding throughout (type): functional
Test [1] relates to Vibrio alginolyticus. The test can be described thus: Antimicrobial activity against Vibrio alginolyticus assessed as zone of inhibition.
The test system of test [2] is Vibrio parahaemolyticus. Put plainly: Antimicrobial activity against Vibrio parahaemolyticus assessed as zone of inhibition.
Test [3] relates to Vibrio anguillarum. Put plainly: Antimicrobial activity against Vibrio anguillarum assessed as zone of inhibition per disc at 100 ug measured after 24 hrs by disc diffusion assay. As to conditions: read-out: IZ.
The test system of test [4] is Vibrio alginolyticus. The test can be described thus: Antimicrobial activity against Vibrio alginolyticus assessed as bacterial growth inhibition.
Test [5] concerns Vibrio parahaemolyticus. The test can be described thus: Antimicrobial activity against Vibrio parahaemolyticus MTCC451 assessed as zone of inhibition in diameter per disc at 100 ug measured for 24 to 72 hrs. The conditions noted are these: time 24-72 hrs, read-out: IZ.
Test [6] relates to Vibrio vulnificus. Put plainly: Antimicrobial activity against Vibrio vulnificus MTCC1145 assessed as zone of inhibition in diameter per disc at 100 ug measured for 24 to 72 hrs. The conditions noted are these: time 24-72 hrs, read-out: IZ.
Test [7] relates to Vibrio vulnificus. The test can be described thus: Antimicrobial activity against Vibrio vulnificus MCCC E1758 assessed as bacterial growth inhibition by resazurin dye based assay.
Test [8] relates to Vibrio vulnificus. Put plainly: Antimicrobial activity against Vibrio vulnificus MCCC E333 assessed as bacterial growth inhibition by resazurin dye based assay.
Test [9] has as its system Vibrio parahaemolyticus. Put plainly: Antibacterial activity against Vibrio parahaemolyticus assessed as bacterial growth inhibition by agar dilution method. A general note: In agar dilution, organisms are placed on agar that contains the substance at set levels.
The subject of a further test is Vibrio natriegens. The test can be described thus: Antimicrobial activity against Vibrio natriegens assessed as bacterial growth inhibition.
In a further test the test system is Vibrio ichthyoenteri. Put plainly: Antimicrobial activity against Vibrio ichthyoenteri assessed as bacterial growth inhibition.
Test [10] has as its system Vibrio harveyi. The test can be described thus: Antimicrobial activity against Vibrio harveyi QDIO-9 assessed as bacterial growth inhibition.
Test [11] relates to Vibrio parahaemolyticus. The test can be described thus: Antimicrobial activity against Vibrio parahaemolyticus QDIO-10 assessed as bacterial growth inhibition.
In a further test the test system is Vibrio brasiliensis. The test can be described thus: Antimicrobial activity against Vibrio brasiliensis assessed as bacterial growth inhibition.
The subject of another test is Vibrio mediterranei. The test can be described thus: Antimicrobial activity against Vibrio mediterranei assessed as bacterial growth inhibition.
Test [12] concerns Vibrio anguillarum. Put plainly: Antimicrobial activity against Vibrio anguillarum assessed as bacterial growth inhibition.
For test [13], the system named is Vibrio harveyi. Put plainly: Antimicrobial activity against Vibrio harveyi assessed as bacterial growth inhibition.
For test [14], the system named is Vibrio parahaemolyticus. Put plainly: Antimicrobial activity against Vibrio parahaemolyticus QDIO-10 assessed as bacterial growth inhibition measured after 24 hrs by microtitre plate reader assay.
In test [15] the test system is Vibrio anguillarum. Put plainly: Antimicrobial activity against Vibrio anguillarum QDIO-8 assessed as bacterial growth inhibition measured after 24 hrs by microtitre plate reader assay.
Test [16] has as its system Vibrio harveyi. The test can be described thus: Antimicrobial activity against Vibrio harveyi QDIO-9 assessed as bacterial growth inhibition measured after 24 hrs by microtitre plate reader assay.
Test [17] deals with Vibrio anguillarum. Put plainly: Antimicrobial activity against Vibrio anguillarum QDIO-6 assessed as bacterial growth inhibition by microtiter plate assay.
Test [18] deals with Vibrio parahaemolyticus. Put plainly: Antimicrobial activity against Vibrio parahaemolyticus assessed as bacterial growth inhibition by MTT assay. Background: Tetrazolium dyes change colour on reduction, which living cells bring about.
The subject of test [19] is Vibrio vulnificus. Put plainly: Antimicrobial activity against Vibrio vulnificus assessed as bacterial growth inhibition by MTT assay.
Test [20] has as its system Vibrio parahaemolyticus. Put plainly: Antimicrobial activity against Vibrio parahaemolyticus assessed as bacterial growth inhibition.
The test system of a further test is Vibrio cholerae. Put plainly: Antimicrobial activity against Vibrio cholerae assessed as bacterial growth inhibition.

As for `CC(C)C[C@@H]1NC(=O)[C@H]2C[C@H](O)CN2C1=O`, the “inhibition zone (IZ)” value was 20 mm in the test on Vibrio alginolyticus [1] and 12 mm in the test on Vibrio parahaemolyticus [2].

With `O=C1N[C@](O)(Cc2ccccc2)C(=O)N2CCC[C@H]12`, in the test with Vibrio anguillarum [3], the zone of inhibition at 100 µg/disc was found to be 20 mm.

In the case of `CC1(C)C=Cc2c(ccc3c2[N+]([O-])=C2C3CC34NC(=O)[C@@]5(CCCN5C3=O)C[C@H]4C2(C)C)O1` (stereo partly specified), the figures for the MIC with Vibrio parahaemolyticus [2] (Vibrio parahaemolyticus) and in the test with Vibrio alginolyticus [4] were 8 µg/mL (≈ 17.9 µM) and 16 µg/mL (≈ 35.8 µM), respectively.

As to `CC[C@@H](O)/C=C/CC(=O)O[C@@H]1/C=C/C=C\C[C@H](O)C[C@@H](O)/C=C/C=C\CCC[C@@H](C)OC(=O)/C=C\C=C\C1`, the zone of inhibition at 100 µg/disc with Vibrio parahaemolyticus [5] was 16 mm; with Vibrio vulnificus [6] it was 14.3 mm.

Take `Cc1c(O)c(C)c2c(c1O)C(=O)O[C@](C)(O)[C@H]2C`: the results for the MIC in the test with Vibrio vulnificus [7] and in the test on Vibrio vulnificus [8] were 16.6 µg/mL (≈ 65.8 µM) and 15.3 µg/mL (≈ 60.7 µM), respectively.

For `COC(=O)/C=C/C=C/C(=O)N[C@H]1CCCNC(=O)[C@H](C)N(C)C(=O)[C@H](C(C)C)N(C)C1=O`, the MIC in the test with Vibrio parahaemolyticus [9] was 6.25 µM (≈ 2.82 µg/mL).

In the case of `Cc1cc2c(c(=O)[nH]1)O[C@H]([C@@H](O)CC(C)C)O2`, the minimum inhibitory concentration (MIC) in the test on Vibrio natriegens is 0.001 µg/mL (≈ 0.00418 µM).

On to `Cc1cc(O)cc(Oc2cc(C)cc(O)c2O)c1` [CORDYOL C], for which the MIC in the test on Vibrio ichthyoenteri amounted to 40 µg/mL (≈ 162 µM).

In the case of `C=C[C@@]1(C)CCC2=C(C(=O)C=C3C(C)(C)CCC[C@]32O)[C@@H]1O`, the MIC with Vibrio harveyi [10] and in the test on Vibrio parahaemolyticus [11] was 8 µg/mL (≈ 26.5 µM) each time.

For `CC(C)[C@@H](C)/C=C/[C@@H](C)[C@H]1CC[C@@H]2[C@]1(C)CCC1[C@@]23OO[C@]2(C=C3O)C[C@@H](O)CC[C@]12C` (stereo partly specified), the MIC with Vibrio brasiliensis was determined as 32 µg/mL (≈ 72 µM); with Vibrio mediterranei it was 8 µg/mL (≈ 18 µM).

On to `C[C@]12CC[C@H](O)[C@](C)(CO)[C@@H]1CC[C@]1(C)[C@@H]2C[C@@H](O)[C@@H]2[C@@]3(C)CC[C@H]([C@](C)(O)CO)[C@@H]3CC[C@]21C`, for which the MIC with Vibrio alginolyticus [4] came out at 16 µg/mL (≈ 32.5 µM).

On to `CO[C@H](C)[C@@H](/C=C/C=C/C(=O)N(C)[C@H]1CCCN(C)C(=O)[C@H](C)N(C)C(=O)[C@H](C(C)C)N(C)C1=O)OC`, for which the MIC in the test with Vibrio parahaemolyticus [9] came to 25 µM (≈ 13.1 µg/mL).

For `O=C(O)c1cn(C2CC2)c2cc(N3CCNCC3)c(F)cc2c1=O` [CIPROFLOXACIN], the MIC in the test with Vibrio anguillarum [12] was 20 µM (≈ 6.63 µg/mL); with Vibrio harveyi [13] it was 32 µg/mL (≈ 96.6 µM). For the same compound, the zone of inhibition at 100 µg/disc in the test with Vibrio anguillarum [3] was determined as 26 mm.

Regarding `COC(=O)[C@@H]1CCCN1C(=O)c1cc2c([nH]c3cc(OC)ccc32)c(C=C(C)C)n1`, in the test with Vibrio alginolyticus [4], the MIC was determined as 32 µg/mL (≈ 78.5 µM).

With `CC(C)(O)CCCC(C)(O)c1ccc(C(=O)O)cc1O` (stereo unspecified), the MIC in the test with Vibrio parahaemolyticus [14], with Vibrio anguillarum [15] and with Vibrio harveyi [16] was 4 µg/mL (≈ 14.2 µM) throughout.

As to `CC(C)C[C@H]1NC(=O)[C@H]2C[C@H](O)CN2C1=O`, the “inhibition zone (IZ)” value came out at 22 mm with Vibrio alginolyticus [1] and 14 mm in the test with Vibrio parahaemolyticus [2].

Regarding `CC(C)[C@H]1C(=O)N(C)[C@@H](C)C(=O)NCCC[C@H](NC(=O)/C=C/C=C/C(=O)O)C(=O)N1C`, in the test with Vibrio parahaemolyticus [9], the minimal inhibitory concentration (MIC) came out at 3.13 µM (≈ 1.37 µg/mL).

Turning to `COC(=O)[C@H](O)CS[C@@H]1CCCCCCC[C@@H](C)OC(=O)C1`, the minimum inhibitory concentration (MIC) in the test with Vibrio anguillarum [17] was found to be 2 µg/mL.

In the case of `CC(=O)c1ccccc1C[C@@H](O)/C=C/CC(=O)O[C@@H]1/C=C/C=C\C[C@H](O)C[C@@H](O)/C=C/C=C/CCC[C@@H](C)OC(=O)/C=C\C=C\C1`, the minimal inhibitory concentration (MIC) in the test with Vibrio parahaemolyticus [18] and in the test on Vibrio vulnificus [19] was 3.12 µg/mL (≈ 4.93 µM) each time.

As for `COC(=O)c1ccc([C@](C)(O)CCCC(C)(C)O)c(O)c1`, the MIC in the test with Vibrio parahaemolyticus [14], in the test with Vibrio anguillarum [15] and in the test with Vibrio harveyi [16] was 4 µg/mL (≈ 13.5 µM) in each case.

With `O=C(O)c1cc(Cl)c[nH]1`, the minimal inhibitory concentration (MIC) in the test on Vibrio parahaemolyticus [20] stood at 25 µg/mL (≈ 172 µM); with Vibrio cholerae, 100 µg/mL (≈ 687 µM).

One may read the MIC as the least concentration at which growth counts as inhibited.

Values taken from ChEMBL document CHEMBL5360560, “Anti-Vibrio potential of natural products from marine microorganisms” (Eur J Med Chem, 2023).
